According to paper PMC8621456, “New Investigations with Lupane Type A-Ring Azepane Triterpenoids for Antimycobacterial Drug Candidate Design” (International Journal of Molecular Sciences, 2021):
In brackets after ≈: the same amount, converted by molar mass. Several values for one entry are separate records, joined by “and”; a condition that tells them apart may be missing. Equal values may be shown once. Read-outs that look alike come from different tables or passages of the source. Marks after values point to notes of the source that are not given here.

Legend:
M. tuberculosis H37Rv [1] = test: microbe, parasite or virus in culture; type: cell-based; conditions: Mycobacterium tuberculosis, read-out: MIC (µM) H37Rv
[2] = system: M. avium complex (ATCC 700,891 MAC 101); test: Ex vivo efficacy in infected THP-1 macrophages; type: cell-based; conditions: Mycobacterium avium
[3] = system: M. abscessus (ATCC 19977); test: Ex vivo efficacy in infected THP-1 macrophages; type: cell-based, Mycobacterium abscessus; conditions: Mycobacteroides abscessus
M. tuberculosis H37Rv [4] = conditions: compound 1 included as reference; ref [26],[27],[28]; cited from earlier work
H37Rv (katG^del) = conditions: compound 1 included as reference; ref [26],[27],[28]; cited from earlier work
[5] = system: M. abscessus (ATCC 19977); conditions: compound 1 included as reference; ref [26],[27],[28]; cited from earlier work
M. avium (ATCC 25291) [6] = conditions: compound 1 included as reference; ref [26],[27],[28]; cited from earlier work
M. avium (ATCC 25291) [7] = test: MIC determination against NTM strains, microbroth dilution; type: cell-based; conditions: Mycobacterium avium, ATCC25291; NTM strain
[8] = system: M. abscessus (ATCC 19977); test: as above; type: cell-based, Mycobacterium abscessus; conditions: Mycobacteroides abscessus
MTB H37Rv = conditions: ref [26]; cited from earlier work
M. tuberculosis H37Rv [9] = test: Fractional inhibitory concentration (FIC), checkerboard with standard of care drugs; type: cell-based, Mycobacterium tuberculosis
[10] = ATCC700, infected THP-1 macrophages, concentration for >90% inhibition, read-out: M. avium Ex Vivo Efficacy (>90% Inhibition µM)
[11] = ATCC19977, infected THP-1 macrophages, concentration for >90% inhibition, read-out: M. abscessus Ex Vivo Efficacy (>90% Inhibition µM)
[12] = ATCC19977, NTM strain, read-out: MIC (µM) M. abscessus 19977
[13] = ATCC19977, read-out: MIC (µM) M. abscessus 19977
[14] = ATCC700, THP-1, read-out: M. avium Ex Vivo Efficacy (>90% Inhibition µM)
[15] = ATCC19977, THP-1, read-out: M. abscessus Ex Vivo Efficacy (>90% Inhibition µM)

Compound	MIC (M. tuberculosis H37Rv [1])	MIC (M. avium (ATCC 25291) [7])	MIC [8, 12]	other results
NNC(=O)c1ccncc1 [Isoniazid, reference compound]	0.03 µM (≈ 0.00411 µg/mL)	–	–	–
C=C(C)[C@@H]1CC[C@]2(CO)CC[C@]3(C)[C@H](CC[C@@H]4[C@@]5(C)CCCNC(C)(C)[C@@H]5CC[C@]43C)[C@@H]12 [Compound 1, azepanobetulin]	–	–	–	IC90 [2, 10]: 8 µM; IC90 [3, 11]: > 128 µM; MIC (µM) H37Rv (M. tuberculosis H37Rv [4]): 4 * µM; MIC (µM) H37Rv (katG^del) (H37Rv (katG^del)): 2 * µM; MIC (µM) M. abscessus 19977 [5]: 8 * µM; MIC (µM) M. avium 25291 (M. avium (ATCC 25291) [6]): 0.125 µM and 0.125 * µM
CO[C@H]1/C=C/O[C@@]2(C)Oc3c(C)c(O)c4c(O)c(c(/C=N/N5CCN(C)CC5)c(O)c4c3C2=O)NC(=O)/C(C)=C\C=C\[C@H](C)[C@H](O)[C@@H](C)[C@@H](O)[C@@H](C)[C@H](OC(C)=O)[C@@H]1C [Rifampin, reference compound]	≤ 0.004 µM	0.0625 µM (≈ 0.0514 µg/mL)	–	–
C=C(CN=[N+]=[N-])[C@@H]1CC[C@]2(COC(C)=O)CC[C@]3(C)[C@H](CC[C@@H]4[C@@]5(C)CCCNC(C)(C)[C@@H]5CC[C@]43C)[C@@H]12 [Compound 15]	> 32 µM	64 µM (≈ 33.6 µg/mL)	> 64 µM	–
C=C(C)[C@@H]1CC[C@]2(COS(=O)(=O)c3ccc(C)cc3)CC[C@]3(C)[C@H](CC[C@@H]4[C@@]5(C)CCCNC(C)(C)[C@@H]5CC[C@]43C)[C@@H]12 [Compound 6]	8 µM (≈ 4.77 µg/mL)	1 µM (≈ 0.596 µg/mL)	–	MIC [8, 13]: 8 µM (≈ 4.77 µg/mL)
NCC[C@H](O)C(=O)N[C@@H]1C[C@H](N)[C@@H](O[C@H]2O[C@H](CN)[C@@H](O)[C@H](O)[C@H]2O)[C@H](O)[C@H]1O[C@H]1O[C@H](CO)[C@@H](O)[C@H](N)[C@H]1O [Amikacin, reference compound]	–	–	8 µM (≈ 4.68 µg/mL)	–
C=C(C)[C@@H]1CC[C@]2(COC(C)=O)CC[C@]3(C)[C@H](CC[C@@H]4[C@@]5(C)CCCN(C(=O)c6cccnc6)C(C)(C)[C@@H]5CC[C@]43C)[C@@H]12 [Compound 12]	32 µM (≈ 18.8 µg/mL)	4 µM (≈ 2.36 µg/mL)	8 µM (≈ 4.71 µg/mL)	–
C=C(CBr)[C@@H]1CC[C@]2(COC(C)=O)CC[C@]3(C)[C@H](CC[C@@H]4[C@@]5(C)CCCNC(C)(C)[C@@H]5CC[C@]43C)[C@@H]12 [Compound 14]	> 32 µM	0.0625 µM (≈ 0.0352 µg/mL)	> 64 µM	–
C#CCNC(=O)[C@]12CC[C@@H](C(=C)C)[C@@H]1[C@H]1CC[C@@H]3[C@@]4(C)CCCNC(C)(C)[C@@H]4CC[C@@]3(C)[C@]1(C)CC2 [Compound 20, 17-(Propargyl)-3-deoxo-3a-homo-3a-aza-lup-20(29)-en-carboxamide]	≤ 4 µM	4 µM (≈ 1.97 µg/mL)	16 µM (≈ 7.88 µg/mL)	–
C=C(C)[C@@H]1CC[C@]2(COC(=O)c3cccnc3)CC[C@]3(C)[C@H](CC[C@@H]4[C@@]5(C)CCCNC(C)(C)[C@@H]5CC[C@]43C)[C@@H]12 [Compound 5]	8 µM (≈ 4.37 µg/mL)	1 µM (≈ 0.547 µg/mL)	–	MIC [8, 13]: 16 µM (≈ 8.75 µg/mL); IC90 [2, 14]: 32 µM; IC90 [3, 15]: > 128 µM
CC[C@H]1OC(=O)[C@H](C)[C@@H](O[C@H]2C[C@@](C)(OC)[C@@H](O)[C@H](C)O2)[C@H](C)[C@@H](O[C@@H]2O[C@H](C)C[C@H](N(C)C)[C@H]2O)[C@](C)(OC)C[C@@H](C)C(=O)[C@H](C)[C@@H](O)[C@]1(C)O [Clarithromycin, reference compound]	–	0.125 µM (≈ 0.0935 µg/mL)	4 µM (≈ 2.99 µg/mL)	IC90 [2, 10]: 8 µM; IC90 [3, 11]: 128 µM
COc1c(N2C[C@@H]3CCCN[C@@H]3C2)c(F)cc2c(=O)c(C(=O)O)cn(C3CC3)c12 [Moxifloxacin, reference compound]	0.06 µM (≈ 0.0241 µg/mL)	–	–	–
CC1(C)CCC23CCC4(C)C(CCC5C6(C)CCCNC(C)(C)C6CCC54C)C2C1OC3 (stereo not drawn) [Compound 17]	16 µM (≈ 7.07 µg/mL)	0.5 µM (≈ 0.221 µg/mL)	16 µM (≈ 7.07 µg/mL)	IC90 [2, 10]: > 128 µM; IC90 [3, 11]: > 128 µM
A-azepano-28-cinnamoyloxybetulin	–	–	–	MBC against MTB H37Rv (MTB H37Rv): 4 µM; MIC against MTB H37Rv (MTB H37Rv): 2 µM
CC(C)=C1CCC=C2CC[C@]3(C)[C@H](CC[C@@H]4[C@@]5(C)CCCNC(C)(C)[C@@H]5CC[C@]43C)[C@H]21 [Compound 18]	16 µM (≈ 6.78 µg/mL)	4 µM (≈ 1.69 µg/mL)	32 µM (≈ 13.6 µg/mL)	IC90 [2, 10]: 128 µM; IC90 [3, 11]: > 128 µM
CC(=O)[C@@H]1CC[C@]2(COS(=O)(=O)c3ccc(C)cc3)CC[C@]3(C)[C@H](CC[C@@H]4[C@@]5(C)CCCNC(C)(C)[C@@H]5CC[C@]43C)[C@@H]12 [Compound 13]	32 µM (≈ 19.1 µg/mL)	2 µM (≈ 1.2 µg/mL)	16 µM (≈ 9.57 µg/mL)	–
C=C(C)[C@@H]1CC[C@]2(C(=O)NC3CCCCC3)CC[C@]3(C)[C@H](CC[C@@H]4[C@@]5(C)CCCNC(C)(C)[C@@H]5CC[C@]43C)[C@@H]12 [Compound 10]	≤ 4 µM	2 µM (≈ 1.07 µg/mL)	–	MIC [8, 13]: 8 µM (≈ 4.3 µg/mL); IC90 [2, 14]: 64 µM; IC90 [3, 15]: > 128 µM
C=C(C)[C@@H]1CC[C@]2(C(=O)N3CCN(C)CC3)CC[C@]3(C)[C@H](CC[C@@H]4[C@@]5(C)CCCNC(C)(C)[C@@H]5CC[C@]43C)[C@@H]12 [Compound 9]	≤ 4 µM	4 µM (≈ 2.15 µg/mL)	–	MIC [8, 13]: ≤ 4 µM; IC90 [2, 14]: > 128 µM; IC90 [3, 15]: > 128 µM; FIC value with Ethambutol (M. tuberculosis H37Rv [9]): 2.5 Indifferent; FIC value with Rifampin (M. tuberculosis H37Rv [9]): 1.5 Indifferent
C=C(C)[C@@H]1CC[C@]2(COC(C)=O)CC[C@]3(C)[C@H](CC[C@@H]4[C@@]5(C)CCCN(C(C)=O)C(C)(C)[C@@H]5CC[C@]43C)[C@@H]12 [Compound 11]	8 µM (≈ 4.21 µg/mL)	4 µM (≈ 2.1 µg/mL)	16 µM (≈ 8.41 µg/mL)	–
C=C(C)[C@@H]1CC[C@]2(COC(=O)c3ccccc3C(=O)O)CC[C@]3(C)[C@H](CC[C@@H]4[C@@]5(C)CCCNC(C)(C)[C@@H]5CC[C@]43C)[C@@H]12 [Compound 4]	16 µM (≈ 9.44 µg/mL)	4 µM (≈ 2.36 µg/mL)	–	MIC [8, 13]: 16 µM (≈ 9.44 µg/mL)
C=C(C)[C@@H]1CC[C@]2(C=NNC(=O)c3ccncc3)CC[C@]3(C)[C@H](CC[C@@H]4[C@@]5(C)CCCNC(C)(C)[C@@H]5CC[C@]43C)[C@@H]12 [Compound 7]	–	4 µM (≈ 2.24 µg/mL)	8 µM (≈ 4.47 µg/mL)	IC90 [2, 10]: 128 µM; IC90 [3, 11]: > 128 µM; FIC value with Rifampin (M. tuberculosis H37Rv [9]): 1.0 Additive; FIC value with Ethambutol (M. tuberculosis H37Rv [9]; combination with Ethambutol): 1.0; FIC value with Isoniazid (M. tuberculosis H37Rv [9]; combination with Isoniazid): 0.8
C=C(C)[C@@H]1CC[C@]2(C(=O)NC(CO)Cc3ccccc3)CC[C@]3(C)[C@H](CC[C@@H]4[C@@]5(C)CCCNC(C)(C)[C@@H]5CC[C@]43C)[C@@H]12 (stereo partly drawn) [Compound 8]	8 µM (≈ 4.71 µg/mL)	4 µM (≈ 2.36 µg/mL)	–	MIC [8, 13]: 32 µM (≈ 18.8 µg/mL); IC90 [2, 14]: 16 µM; IC90 [3, 15]: > 128 µM
C=C(C)[C@@H]1CC[C@]2(CN)CC[C@]3(C)[C@H](CC[C@@H]4[C@@]5(C)CCCNC(C)(C)[C@@H]5CC[C@]43C)[C@@H]12 [Compound 3]	8 µM (≈ 3.53 µg/mL)	2 µM (≈ 0.882 µg/mL)	–	MIC [8, 13]: 16 µM (≈ 7.05 µg/mL); IC90 [2, 14]: > 128 µM; IC90 [3, 15]: > 128 µM; FIC interpretation with Isoniazid (M. tuberculosis H37Rv [9]): 1.0 Additive (key: FIC VALUE ≤ 0.5 (Synergistic); 0.5–1.0 (Additive); 1.0–4.0 (Indifferent); > 4.0 (Antagonistic)); FIC interpretation with Rifampin (M. tuberculosis H37Rv [9]): 1.0 Additive (key: FIC VALUE ≤ 0.5 (Synergistic); 0.5–1.0 (Additive); 1.0–4.0 (Indifferent); > 4.0 (Antagonistic)); FIC value with Ethambutol (M. tuberculosis H37Rv [9]): 1.5 Indifferent; FIC value with Isoniazid (M. tuberculosis H37Rv [9]): 1.0 Additive; FIC value with Rifampin (M. tuberculosis H37Rv [9]): 1.0 Additive
C=C(C)[C@@H]1CC[C@]2(C)CC[C@]3(C)[C@H](CC[C@@H]4[C@@]5(C)CCCNC(C)(C)[C@@H]5CC[C@]43C)[C@@H]12 [Compound 2, azepano-lupeol]	≤ 4 µM	1 µM (≈ 0.426 µg/mL)	≤ 4 µM	IC90 [2, 10]: > 128 µM; IC90 [3, 11]: > 128 µM
O=[N+]([O-])c1cn2c(n1)OC[C@@H](OCc1ccc(OC(F)(F)F)cc1)C2 [Pretomanid, reference compound]	0.125 µM (≈ 0.0449 µg/mL)	–	–	–
